Experiments:
[1] = reaction with atmospheric oxygen (antioxidant action); type: physicochemical; conditions: in solution and in solid form
Description: The compounds of the formula (I) can also be used as antioxidants. Antioxidants (oxidation inhibitors) are organic compounds which inhibit or prevent undesired changes in the substances to be protected caused by the effects of oxygen. Antioxidants are needed, for example, in plastics for protection against ageing, in fats for protection against rancidity, in oils against resinification, in aromatic substances against odor impairment, in foodstuffs, and in pharmaceuticals. The action of the antioxidants usually consists in acting as radical scavengers for the free radicals occurring in the oxidation. The antioxidative action of atrovenetin (compound of the formula (III)) has already been described by Y. Ishikawa et al. (J. Am. Oil Chem. Soc. 68, 666-668, 1991). Microbial antioxidants, however, are often too weak or not highly tolerable in their action. There is therefore a great need for novel, efficacious and tolerable antioxidants. […] This increased affinity of penilenone for oxygen, however, is decidedly advantageous for very oxidation-sensitive substances.

Streptomyces murinus = assay: agar diffusion test (antibiogram on solid nutrient plates with antibiotic diffusion); type: cell-based; conditions: agar plate containing Streptomyces murinus culture
Experimental: Moreover to be emphasized is an antimicrobial inhibitory action of the compounds of formula (I) according to the invention on bacteria, such as, for example, Staphylococcus aureus, Streptomyces murinus and against fungi, such as Aspergillus niger, which can cause stubborn, life-threatening infectious diseases. […] Thus, penilenone on an agar plate containing Streptomyces murinus culture in a solution of 1 mg per mL causes an inhibition halo of 11 mm and in a solution of 0.1 mg per mL an inhibition halo of 8 mm. The compounds of the formula (I) according to the invention are therefore likewise suitable for the treatment and/or prophylaxis of bacterial infections and/or fungal diseases (micosis or mycoses).

[2] = solubility (physicochemical properties)
Description: (§1) The melting point is not determinable because of decomposition. Stable in mildly acidic medium under reducing conditions. Under the influence of oxygen, penilenone turns green in neutral medium or in the presence of amines.

[3] = stability (physicochemical properties)
Description: as §1

Row | Structure (SMILES) | reaction with atmospheric oxygen [1] | inhibition halo (Streptomyces murinus; solution of 0.1 mg per mL) [mm] | inhibition halo (Streptomyces murinus; solution of 1 mg per mL) [mm] | solubility in organic solvents ([2]; medium polar and polar organic solvents) | solubility in water ([2]; water) | stability ([3]; mildly acidic medium under reducing conditions) | behaviour under the influence of oxygen ([3]; neutral medium or in the presence of amines)
1 | Cc1cc(O)c2c3c(c(O)c4c(c13)OC(C)C4(C)C)C(O)=C(O)C2=O (centres unmarked) [atrovenetin, reference compound] | reacts only slowly with atmospheric oxygen |  |  |  |  |  | 
2 | Cc1cc(O)c2c3c(c(O)cc(O)c13)C(O)=C(O)C2=O [penilenone] | combines with oxygen within seconds or in a few minutes | 8 | 11 | soluble in medium polar and polar organic solvents | not very soluble in water | Stable | turns green

Source: patent US20040014807A1, “Phenalenone derivatives, processes for preparation and use thereof” (priority 2002, published 2004)
